≈ marks a conversion by molar mass, not a printed value. Where two headings read alike, the source gives them in different places.
Experiments:
E. faecalis ATCC 29212 = assay type: cell-based; conditions: ATCC 29212, 20 h
How it was run: (§1)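 Broth microdilution in Mueller-Hinton broth with Mg2+ and Ca2+ at 4 mg/L each, inoculum ~5 × 10^5 CFU/mL. Compounds diluted in 0.01% acetic acid, 0.2% BSA (final) using low-binding plastics; MIC read after 20 h at 35 °C (±2 °C) with shaking at 180 rpm.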

K. pneumoniae ATCC 13883 = assay type: cell-based
How it was run: as §1

[1] = Estimation of log D values (n-octanol/PBS pH 7.4, LC-MS, log Dmax from LOQ); assay type: physicochemical; conditions: n-octanol/PBS pH 7.4, 25 °C; indicative threshold from LOQ in octanol phase
Protocol: A phosphate buffered saline (PBS) pH 7.4 was prepared and then saturated with n-octanol. Likewise, an n-octanol solution saturated with pH 7.4 PBS buffer was also prepared. Both solutions were shaken for 24 h, and then left for 24 h in a separating funnel to ensure complete separation of the two phases. This provided an aqueous phase (PBS buffer saturated with n-octanol) and an n-octanol phase (saturated with PBS buffer).
Samples for log D determination were prepared as following: All compounds were dissolved in PBS buffer at a concentration 4 mg/mL, which was used as stock solutions. PBS-saturated n-octanol (1.0 mL), n-octanol-saturated PBS (0.76 mL) and sample stock solution (0.24 mL) were placed into a 4-mL clear glass vial and incubated on Biosan Thermo Shaker TS-100 at 1000 rpm and 25 °C. For optimization of the assay, the incubation time was varied from 5 h to 48 h. […] After incubation samples were centrifugated and left for 30 min to ensure complete separation of the phases. The distribution coefficient was determined by quantification of the compounds both in the aqueous and n-octanol phases. Then, 100 µL of each phase were transferred to 1.5 mL champagne glass vial and evaporated using a GeneVac EZ-2 PLUS evaporation instrument. Before LC-MS analysis samples were diluted with 200 µL MeCN–0.1% aqueous formic acid (1:1, v/v).
LC-MS was performed on Acquity UPLC chromatograph coupled with a MICROMASS QUATTRO micro^TM API tandem mass spectrometer. The mass spectrometer was operated in positive electrospray ionisation mode. Parameter settings were as follows: desolvation gas (N2) flow was 600 L/h; desolvation gas temperature was 400 °C; capillary voltage, 3.30 kV; ion source temperature was 120 °C. Initial data acquisition was carried out in full-scan mode to select the most abundant ions of the individual compounds.
Waters Acquity UPLC column BEH C18 (2.1 × 50 mm, 1.7 µm particle size) was applied for analysis. Acetonitrile and 0.1% aqueous formic acid mixtures were used as mobile phase at a flow rate of 0.4 mL/min with the following gradient: 0.0–2.5 min 5–98% MeCN, 2.5–3.5 min 98% MeCN. Injection volume was 2 µL.
Limit of quantitation (LOQ) was determined using S/N ratio for each compound and used for log Dmax calculations according to the following equation:(2) log Dmax = log (theoretical peak area of n-octanol phase at LOQ concentration/peak area of buffer base) Theoretical peak area at LOQ was calculated according to the calibration curve for each compound.

S. aureus ATCC 29213 = assay type: cell-based, Staphylococcus aureus; conditions: ATCC 29213, 20 h
How it was run: as §1

[2] = Hydrophobicity by retention in analytical RP-HPLC (% MeCN at peak elution); assay type: physicochemical; conditions: for % MeCN at Elution, Aeris Peptide: Phenomenex Aeris Peptide XB-C18 column; for % MeCN at Elution, Aeris Peptide / % MeCN at Elution, Luna Omega / % MeCN at Elution, Supelco Discovery: gradient 0→60% B during 15 min; for % MeCN at Elution, Luna: Phenomenex Luna C18(2) column, RP-HPLC gradient 0→60% B during 15 min, relative hydrophobicity; for % MeCN at Elution, Luna Omega: Phenomenex Luna Omega Polar C18 column; for % MeCN at Elution, Supelco Discovery: Supelco Discovery BIO Wide pore C18 column
How it was run: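 Retention times measured on four C18 columns (Luna C18(2), Luna Omega Polar C18, Aeris Peptide XB-C18, Discovery BIO Wide pore) with MeCN–H2O/0.1% TFA, linear 0–60% B over 15 min, 0.8 mL/min, UV 220 nm. % MeCN at elution = 0.95(0.6Rt/15 min)+0.05(1−0.6Rt/15 min).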

P. aeruginosa PAO1 = assay type: cell-based, Pseudomonas aeruginosa; conditions: PAO1, 20 h
How it was run: as §1

[3] = tested on: P. aeruginosa NMI 7197/19; assay type: cell-based, Pseudomonas aeruginosa; conditions: NMI 7197/19, 20 h
How it was run: as §1

E. coli ATCC 25922 = assay type: cell-based, Escherichia coli; conditions: ATCC 25922, 20 h
How it was run: as §1

E. coli NMI 3898/15 = assay type: cell-based, Escherichia coli; conditions: NMI 3898/15, 20 h
How it was run: as §1

E. coli NMI 3371/16 = assay type: cell-based, Escherichia coli; conditions: NMI 3371/16, 20 h
How it was run: as §1

Structure (SMILES)	MIC, EF (E. faecalis ATCC 29212) [mg/L]	MIC, KP (K. pneumoniae ATCC 13883)	log Dmax [1]	MIC, SA (S. aureus ATCC 29213) [mg/L]	% MeCN at Elution, Aeris Peptide [2] [% MeCN]	% MeCN at Elution, Luna [2] [% MeCN]	% MeCN at Elution, Luna Omega [2] [% MeCN]	% MeCN at Elution, Supelco Discovery [2] [% MeCN]	MIC, PA (P. aeruginosa PAO1) [mg/L]	MIC, P. aeruginosa NMI 7197/19 [3] [mg/L]	MIC, EC (E. coli ATCC 25922) [mg/L]	MIC, E. coli NMI 3898/15 (E. coli NMI 3898/15) [mg/L]	MIC, E. coli NMI 3371/16 (E. coli NMI 3371/16) [mg/L]	MIC, KP (K. pneumoniae ATCC 13883; ATCC 13883, 20 h) [µg/mL]
NCCCC[C@H](NC(=O)CCN(Cc1ccc(F)cc1)C(=O)[C@H](CCCCN)NC(=O)CCN(Cc1ccc(F)cc1)C(=O)[C@H](CCCCN)NC(=O)CCN(Cc1ccc(F)cc1)C(=O)[C@H](CCCCN)NC(=O)CCN(Cc1ccc(F)cc1)C(=O)[C@H](CCCCN)NC(=O)CCN(Cc1ccc(F)cc1)C(=O)[C@@H](N)CCCCN)C(=O)N(CCC(N)=O)Cc1ccc(F)cc1 [Compound 1, H-[Lys-βNPhe(4-F)]6-NH2]	>64	64–>64	< −2.662	16 (≈ 8.6 µM)	39.4	41.6	41.9	41.7	32 to 64	>64	4 to 8	8 (≈ 4.3 µM)	8 (≈ 4.3 µM)	
NCCCC[C@H](NC(=O)CCN(Cc1ccc(F)cc1)C(=O)[C@H](CCCCN)NC(=O)CCN(Cc1ccc(F)cc1)C(=O)[C@H](CCCCN)NC(=O)CCOCCOCCOCCOCCOCCOCCNC(=O)CCN(Cc1ccc(F)cc1)C(=O)[C@H](CCCCN)NC(=O)CCN(Cc1ccc(F)cc1)C(=O)[C@H](CCCCN)NC(=O)CCN(Cc1ccc(F)cc1)C(=O)[C@@H](N)CCCCN)C(=O)N(CCC(N)=O)Cc1ccc(F)cc1 [Compound 10, H-[X]3-sPEG6-[X]3-NH2]	>64		< −2.994	>64	40.3	42.3	42.8	42.5	16 (≈ 7.28 µM)	>64	4 to 8	8 to 32	4 to 16	64 (≈ 29.1 µM)
NCCCC[C@H](NC(=O)CCN(Cc1ccc(F)cc1)C(=O)[C@H](CCCCN)NC(=O)CCN(Cc1ccc(F)cc1)C(=O)[C@H](CCCCN)NC(=O)COCCOCCOCCN)C(=O)N(CCC(=O)NCCOCCOCCOCC(=O)N[C@@H](CCCCN)C(=O)N(CCC(=O)N[C@@H](CCCCN)C(=O)N(CCC(=O)N[C@@H](CCCCN)C(=O)N(CCC(=O)NCCOCCOCCOCC(N)=O)Cc1ccc(F)cc1)Cc1ccc(F)cc1)Cc1ccc(F)cc1)Cc1ccc(F)cc1 [Compound 13, H-sPEG3-[X]3-sPEG3-[X]3-sPEG3-NH2]	>64		< −3.911	>64	39.9	41.9	42.8	42.1	>64	>64	8 to 16	16 (≈ 6.59 µM)	8 (≈ 3.29 µM)	>64
NCCCC[C@H](NC(=O)CCN(Cc1ccc(F)cc1)C(=O)[C@H](CCCCN)NC(=O)CCN(Cc1ccc(F)cc1)C(=O)[C@H](CCCCN)NC(=O)COCCOCCN)C(=O)N(CCC(=O)NCCOCCOCC(=O)N[C@@H](CCCCN)C(=O)N(CCC(=O)N[C@@H](CCCCN)C(=O)N(CCC(=O)N[C@@H](CCCCN)C(=O)N(CCC(=O)NCCOCCOCC(N)=O)Cc1ccc(F)cc1)Cc1ccc(F)cc1)Cc1ccc(F)cc1)Cc1ccc(F)cc1 [Compound 12, H-sPEG2-[X]3-sPEG2-[X]3-sPEG2-NH2]	>64		< −3.147	>64	39.2	41.3	42.0	41.3	16 to 64	>64	8 to 16	16 (≈ 6.97 µM)	8 (≈ 3.48 µM)	>64
